Test results: patent publication US6875761B2 (Eisai Co., Ltd., priority 1997, dated 2005)
Structures can show the parent of a compound that is named as a salt.

Row | Compound | melting point [°C]
1 | CCN1CCN(c2nc(-c3ccc(CCC(C)O)cc3)cc3cccnc23)CC1 (stereo not drawn) (as salt: hydrochloride) [Example 248, 8-(1-ethylpiperazin-4-yl)-6-[4-(3-hydroxybutyl)phenyl]-1,7-naphthyridine Dihydrochloride] | 118 to 121
2 | CCN1CCN(c2nc(-c3ccc(C(F)CCO)cc3)cc3cccnc23)CC1 (stereo not drawn) (as salt: hydrochloride) [Example 249, 8-(1-ethylpiperazin-4-yl)-6-[4-(3-hydroxy-1-fluoropropyl)phenyl]-1,7-naphthyridine Dihydrochloride] | 123 to 125
3 | CCN1CCN(c2nc(-c3ccc(OCC(C)(C)O)cc3)cc3cccnc23)CC1 (as salt: hydrochloride) [Example 250, 8-(1-ethylpiperazin-4-yl)-6-[4-(2-hydroxy-2-methylpropoxy)phenyl]-1,7-naphthyridine Dihydrochloride] | 127 to 132
4 | CCN1CCN(c2nc(-c3ccc(OC)cc3)cc3ncccc23)CC1 (as salt: hydrochloride) [Example 252, 5-(1-ethylpiperazin-4-yl)-7-(4-methoxyphenyl)-1,6-naphthyridine Dihydrochloride] | 242 to 245
5 | CN1CCN(c2nc(-c3ccc(OCCO)cc3)cc3ccsc23)CC1 (as salt: hydrochloride) [Example 253, 5-[4-(2-hydroxyethoxy)phenyl]-7-(4-methylpiperazin-1-yl)thieno[2,3-c]pyridine Hydrochloride] | 141 to 143
6 | CCN1CCN(c2nc(-c3cccc(OCCO)c3)cc3ccsc23)CC1 (as salt: hydrochloride) [Example 258, 7-(1-ethylpiperazin-4-yl)-5-[3-(2-hydroxyethoxy)phenyl]thieno[2,3-c]pyridine Dihydrochloride] | 132 to 135
7 | CCN1CCN(c2nc(-c3ccc(OCCO)cc3)cc3ccsc23)CC1 (as salt: hydrochloride) [Example 259, 7-(4-ethylpiperazin-1-yl)-5-(4-hydroxyethoxyphenyl)thieno[2,3-c]pyridine Hydrochloride] | 135 to 136
8 | CCN1CCN(c2nc(-c3ccc(OCC(C)(C)O)cc3)cc3ccsc23)CC1 (as salt: hydrochloride) [Example 260, 7-(1-Ethylpiperazin-4-yl)-5-[4-(2-hydroxy-2-methylpropoxy)phenyl]thieno[2,3-c]pyridine dihydrochloride] | 137 to 139
9 | CCN1CCN(c2nc(-c3ccc(N4CCOCC4)nc3)cc3ccsc23)CC1 (as salt: hydrochloride) [Example 263, 5-[2-(4-morpholinyl)pyridin-5-yl]-7-(4-ethylpiperazin-1-yl)thieno[2,3-c]pyridine Hydrochloride] | 182 to 185
10 | CCN1CCN(c2nc(-c3ccc(N4CCSCC4)nc3)cc3ccsc23)CC1 (as salt: hydrochloride) [Example 264, 5-[2-(4-thiomorpholinyl)pyridin-5-yl]-7-(4-ethylpiperazine-1-yl)thieno[2,3-c]pyridine Hydrochloride] | 201 to 203
11 | CCN1CCN(c2nc(-c3ccc(N4CCC(O)CC4)nc3)cc3ccsc23)CC1 (as salt: hydrochloride) [Example 265, 5-[2-(4-hydroxypiperidin-1-yl)pyridin-5-yl]-7-(4-ethylpiperazin-1-yl)thieno[2,3-c]pyridine Hydrochloride] | 208 to 210
12 | CCN1CCN(c2nc(-c3ccc(C4=CCOCC4)cc3)cc3ccsc23)CC1 (as salt: hydrochloride) [Example 266, 5-[4-(5,6-dihydro-2H-pyran-4-yl)phenyl]-7-(4-ethylpiperazin-1-yl)thieno[2,3-c]pyridine Hydrochloride] | 176 to 179
13 | CCN1CCN(c2nc(-c3ccc(OC(C)COC)nc3)cc3ccsc23)CC1 (stereo not drawn) (as salt: hydrochloride) [Example 267, 5-[2-(2-methoxyethoxy-2-methyl)pyridin-5-yl]-7-(4-ethylpiperazin-1-yl)thieno[2,3-c]pyridine Hydrochloride] | 112 to 114
14 | CCN1CCN(c2nc(-c3ccc(OCCOC)nc3)cc3ccsc23)CC1 (as salt: hydrochloride) [Example 269, 5-[2-(2-methoxyethoxy)pyridin-5-yl]-7-(4-ethylpiperazin-1-yl)-thieno[2,3-c]pyridine hydrochloride] | 116 to 118
15 | CCN1CCN(c2nc(-c3ccc(C4=CCC(O)CC4)cc3)cc3ccsc23)CC1 (stereo not drawn) (as salt: hydrochloride) [Example 270, 5-[4-(4-hydroxycyclohexen-1-yl)phenyl]-7-(4-ethylpiperazin-1-yl)thieno[2,3-c]pyridine hydrochloride] | 168 to 170
16 | CCCCC(=O)c1ccc(-c2cc3ccsc3c(N3CCN(CC)CC3)n2)cc1 (as salt: hydrochloride) [Example 271, 7-(1-ethylpiperazin-4-yl)-5-(4-pentanoylphenyl)phenyl)thieno[2,3-c]pyridine dihydrochloride] | 109 to 114
17 | CCN1CCN(c2nc(-c3ccc(C(=O)CC(C)C)cc3)cc3ccsc23)CC1 (as salt: hydrochloride) [Example 272, 7-(1-ethylpiperazin-4-yl)-5-[4-(3-methylbutanoyl)phenyl]thieno[2,3-c]pyridine dihydrochloride] | 139 to 141

Row | Compound | melting point [°C]
18 | CCN1CCN(c2nc(-c3ccc(C(=O)NC4CCCCC4)cc3)cc3ccsc23)CC1 (as salt: hydrochloride) [Example 273, dihydrochloride] | 160 to 165
19 | CCN1CCN(c2nc(-c3ccc(C(=O)N4CCCC4)cc3)cc3ccsc23)CC1 (as salt: hydrochloride) [Example 274, 7-(1-ethylpiperazin-4-yl)-5-[4-(pyrrolidinyl-1-carbonyl)phenyl]thieno[2,3-c]pyridine dihydrochloride] | 143 to 146
20 | COc1ccc(-c2cc3ccsc3c(N3CCN(CCO)CC3)n2)cc1 (as salt: hydrochloride) [Example 276, 5-(4-methoxyphenyl)-7-[4-(2-hydroxyethyl)piperazin-1-yl]thieno[2,3-c]pyridine hydrochloride] | 129 to 131
21 | CN1CCN(c2nc(-c3ccc(OCCO)cc3)cc3sccc23)CC1 (as salt: hydrochloride) [Example 279, 4-(4-methylpiperazin-1-yl)-6-[4-(2-hydroxyethoxy)phenyl]thieno[3,2-c]pyridine hydrochloride] | 148 to 150
22 | CCN1CCN(c2nc(-c3cccc(OCCO)c3)cc3sccc23)CC1 (as salt: hydrochloride) [Example 284, 4-(1-ethylpiperazin-4-yl)-6-[3-(2-hydroxyethoxy)phenyl]thieno-[3,2-c]pyridine dihydrochloride] | 126 to 130
23 | CCN1CCN(c2nc(-c3ccc(CCC(C)O)cc3)cc3sccc23)CC1 (stereo not drawn) (as salt: hydrochloride) [Example 285, 4-(1-ethylpiperazin-4-yl)-6-[4-(3-hydroxybutyl)phenyl]thieno[3,2-c]pyridine hydrochloride] | 122 to 124
24 | CCN1CCN(c2nc(-c3ccc(OCCO)cc3)cc3sccc23)CC1 (as salt: hydrochloride) [Example 286, dihydrochloride] | 128 to 129
25 | CN1CCN(c2nc(-c3ccc(OCC(C)(C)O)cc3)cc3sccc23)CC1 (as salt: hydrochloride) [Example 288, 6-[4-(2-methyl-2-hydroxypropoxy)phenyl]-4-(4-methylpiperazin-1-yl)thieno[3,2-c]pyridine hydrochloride] | 135 to 138
26 | CCCN1CCN(c2nc(-c3ccc(OCC(C)(C)O)cc3)cc3sccc23)CC1 (as salt: hydrochloride) [Example 289, 6-[4-(2-methyl-2-hydroxypropoxy)phenyl]-4-(4-propylpiperazin-1-yl)thieno[3,2-c]pyridine hydrochloride] | 133 to 135
27 | CCN1CCN(c2nc(-c3ccc(CCC(C)(C)O)cc3)cc3sccc23)CC1 (as salt: hydrochloride) [Example 291, 4-[4-ethylpiperazin-1-yl)-6-[4-(3-hydroxy-3-methylbutyl)phenyl]thieno[3,2-c]pyridine dihydrochloride] | 116 to 117.5
28 | CCN1CCN(c2nc(-c3ccc(OCCCC(C)(C)O)cc3)cc3sccc23)CC1 (as salt: hydrochloride) [Example 292, 6-[4-(4-methyl-4-hydroxypentyloxy)phenyl]-4-(4-ethylpiperazin-1-yl)thieno[3,2-c]pyridine] | 116 to 118
29 | CCCN1CCN(c2nc(-c3ccc(OCCO)cc3)cc3sccc23)CC1 (as salt: hydrochloride) [Example 293, 4-(4-propylpiperazin-1-yl)-6-[4-(2-hydroxyethoxy)phenyl]thieno[3,2-c]pyridine] | 128 to 130
30 | CC(C)(O)COc1ccc(-c2cc3sccc3c(N3CCN(CCF)CC3)n2)cc1 (as salt: hydrochloride) [Example 294, 6-[4-(2-methyl-2-hydroxypropoxy)phenyl]-4-[4-(2-fluoroethyl)piperazin-1-yl]thieno[3,2-c]pyridine] | 135 to 137
31 | OCCOc1ccc(-c2cc3sccc3c(N3CCN(CCF)CC3)n2)cc1 (as salt: hydrochloride) [Example 295, 4-[4-(2-fluoroethyl)piperazin-1-yl]-6-[4-(2-hydroxyethoxy)phenyl]thieno[3,2-c]pyridine] | 138 to 140
32 | CC(C)(O)COc1ccc(-c2cc3sccc3c(N3CCN(CCO)CC3)n2)cc1 (as salt: hydrochloride) [Example 296, 6-[4-(2-methyl-2-hydroxypropoxy)phenyl]-4-[4-(2-hydroxyethyl)piperazin-1-yl]thieno]3,2-c]pyridine hydrochloride] | 139 to 142
33 | CC(C)(O)COc1ccc(-c2cc3sccc3c(N3CCN(CCc4ccccc4)CC3)n2)cc1 (as salt: hydrochloride) [Example 297, 6-[4-(2-methyl-2-hydroxypropoxy)phenyl]-4-[4-(2-phenylethyl)piperazin-1-yl]thieno[3,2-c]pyridine] | 140 to 142
